Measured values as given in US7803992B2, “Methods and compositions for expressing an herbicide-tolerant polynucleotide” (Pioneer Hi-Bred International, Inc., priority 2005, dated 2010).

Legend:
Format in all cases: in vivo
[1] = tested on: parent elite stiff stalk inbred corn; assay: Postemergence herbicide application in greenhouse: fresh shoot weight and visual injury; details: for Fresh Weight: weighed 2 weeks after treatment, untreated 76.4 g; for pest or weed control at 200 g/ha: Zea mays, post-emergence, read-out: % Visual Injury
[2] = tested on: Heterozygous GAT-HRA corn; assay: as above; details: for Fresh Weight: weighed 2 weeks after treatment, untreated 98.8 g; for pest or weed control at 200 g/ha: Zea mays, post-emergence, read-out: % Visual Injury
[3] = tested on: parent elite stiff stalk inbred corn; assay: Preemergence herbicide application in greenhouse: fresh shoot weight and visual injury; details: for Fresh Weight: fresh shoots weighed 4 weeks after treatment, untreated 36.7 g; for pest or weed control at 200 g/ha: Zea mays, pre-emergence, 672 h, read-out: % Visual Injury
[4] = tested on: Heterozygous GAT-HRA corn; assay: as above; details: for Fresh Weight: fresh shoots weighed 4 weeks after treatment, untreated 47.0 g; for pest or weed control at 200 g/ha: Zea mays, pre-emergence, 672 h, read-out: % Visual Injury
[5] = postemergence, 200 g/ha (glyphosate 3472 g ae/ha, glufosinate ammonium 1870 g/ha), 0% no injury, 100% plant death, mean of four replications
[6] = postemergence, 200 g/ha (glyphosate 3472 g ae/ha, glufosinate ammonium 1870 g/ha), mean of four replications
[7] = preemergence, 200 g/ha, 0% no injury, 100% plant death, mean of four replications
[8] = preemergence, 200 g/ha, mean of four replications

COc1cc(OC)nc(NC(=O)NS(=O)(=O)c2ncccc2OCC(F)(F)F)n1 [Trifloxysulfuron Na^+, Trifloxysulfuron]
% Visual Injury [1, 5]: 100% | Fresh Weight [1, 6]: 1.0 g | % Visual Injury [2, 5]: 29% | Fresh Weight [2, 6]: 86.6 g | % Visual Injury [3, 7]: 100% | Fresh Weight [3, 8]: 0.0 g | % Visual Injury [4, 7]: 0% | Fresh Weight [4, 8]: 50.8 g

CCCOc1nn(C(=O)NS(=O)(=O)c2ccccc2C(=O)OC)c(=O)n1C [Propoxycarbazone Na^+, Propoxycarbazone]
% Visual Injury [1, 5]: 100% | Fresh Weight [1, 6]: 1.9 g | % Visual Injury [2, 5]: 9% | Fresh Weight [2, 6]: 101.2 g | % Visual Injury [3, 7]: 100% | Fresh Weight [3, 8]: 0.6 g | % Visual Injury [4, 7]: 100% | Fresh Weight [4, 8]: 46.7 g

COc1nc(C)nc(NC(=O)NS(=O)(=O)c2ccccc2OCCCl)n1 [Triasulfuron]
pest or weed control at 200 g/ha [1, 5]: 97% | Fresh Weight [1, 6]: 6.4 g | pest or weed control at 200 g/ha [2, 5]: 6% | Fresh Weight [2, 6]: 90.3 g | pest or weed control at 200 g/ha [3, 7]: 89% | Fresh Weight [3, 8]: 14.1 g | pest or weed control at 200 g/ha [4, 7]: 12% | Fresh Weight [4, 8]: 47.7 g

COc1cc(OC)nc(NC(=O)NS(=O)(=O)c2ncccc2C(=O)N(C)C)n1 [Nicosulfuron]
pest or weed control at 200 g/ha [1, 5]: 24% | Fresh Weight [1, 6]: 62.7 g | pest or weed control at 200 g/ha [2, 5]: 0% | Fresh Weight [2, 6]: 94.7 g | pest or weed control at 200 g/ha [3, 7]: 43% | Fresh Weight [3, 8]: 33.6 g | pest or weed control at 200 g/ha [4, 7]: 0% | Fresh Weight [4, 8]: 50.3 g

COC(=O)c1sccc1S(=O)(=O)NC(=O)Nc1nc(C)nc(OC)n1 [Thifensulfuron-methyl]
pest or weed control at 200 g/ha [1, 5]: 98% | Fresh Weight [1, 6]: 4.2 g | pest or weed control at 200 g/ha [2, 5]: 10% | Fresh Weight [2, 6]: 86.6 g | pest or weed control at 200 g/ha [3, 7]: 88% | Fresh Weight [3, 8]: 15.2 g | pest or weed control at 200 g/ha [4, 7]: 3% | Fresh Weight [4, 8]: 36.0 g

CP(=O)(O)CCC(N)C(=O)O (stereo not drawn) [Glufosinate ammonium]
pest or weed control at 200 g/ha ([1]; […]): 99% | Fresh Weight [1, 6]: 2.4 g | pest or weed control at 200 g/ha ([2]; […]): 1% | Fresh Weight [2, 6]: 112.3 g

COc1nc(C)nc(NC(=O)NS(=O)(=O)c2ccccc2Cl)n1 [Chlorsulfuron]
pest or weed control at 200 g/ha [1, 5]: 100% | Fresh Weight [1, 6]: 1.7 g | pest or weed control at 200 g/ha [2, 5]: 13% | Fresh Weight [2, 6]: 105.2 g | pest or weed control at 200 g/ha [3, 7]: 100% | Fresh Weight [3, 8]: 0.0 g | pest or weed control at 200 g/ha [4, 7]: 33% | Fresh Weight [4, 8]: 48.4 g

CCS(=O)(=O)c1nc2ccccn2c1S(=O)(=O)NC(=O)Nc1nc(OC)cc(OC)n1 [Sulfosulfuron]
pest or weed control at 200 g/ha [1, 5]: 97% | Fresh Weight [1, 6]: 4.0 g | pest or weed control at 200 g/ha [2, 5]: 3% | Fresh Weight [2, 6]: 105.5 g | pest or weed control at 200 g/ha [3, 7]: 100% | Fresh Weight [3, 8]: 1.0 g | pest or weed control at 200 g/ha [4, 7]: 18% | Fresh Weight [4, 8]: 50.6 g

COc1cc(OC)nc(NC(=O)NS(=O)(=O)c2cc(NC=O)ccc2C(=O)N(C)C)n1 [Foramsulfuron]
pest or weed control at 200 g/ha [1, 5]: 28% | Fresh Weight [1, 6]: 62.5 g | pest or weed control at 200 g/ha [2, 5]: 8% | Fresh Weight [2, 6]: 80.6 g | pest or weed control at 200 g/ha [3, 7]: 5% | Fresh Weight [3, 8]: 30.6 g | pest or weed control at 200 g/ha [4, 7]: 7% | Fresh Weight [4, 8]: 39.1 g

COCc1cnc(C2=NC(C)(C(C)C)C(=O)N2)c(C(=O)O)c1 (stereo not drawn) [Imazamox]
pest or weed control at 200 g/ha [1, 5]: 100% | Fresh Weight [1, 6]: 2.2 g | pest or weed control at 200 g/ha [2, 5]: 4% | Fresh Weight [2, 6]: 90.9 g | pest or weed control at 200 g/ha [3, 7]: 99% | Fresh Weight [3, 8]: 0.8 g | pest or weed control at 200 g/ha [4, 7]: 13% | Fresh Weight [4, 8]: 47.5 g

COC(=O)c1ccccc1S(=O)(=O)NC(=O)Nc1nc(OC(F)F)cc(OC(F)F)n1 [Primisulfuron-methyl]
pest or weed control at 200 g/ha ([1]; […]): 75% | Fresh Weight [1, 6]: 16.6 g | pest or weed control at 200 g/ha ([2]; […]): 5% | Fresh Weight [2, 6]: 101.0 g | pest or weed control at 200 g/ha [3]: 68% | Fresh Weight [3, 8]: 19.5 g | pest or weed control at 200 g/ha [4]: 7% | Fresh Weight [4, 8]: 37.9 g

CCOc1nc(NC)nc(NC(=O)NS(=O)(=O)c2ccccc2C(=O)OC)n1 [Ethametsulfuron-methyl]
pest or weed control at 200 g/ha ([1]; […]): 96% | Fresh Weight [1, 6]: 5.6 g | pest or weed control at 200 g/ha ([2]; […]): 6% | Fresh Weight [2, 6]: 98.0 g | pest or weed control at 200 g/ha [3]: 100% | Fresh Weight [3, 8]: 1.6 g | pest or weed control at 200 g/ha [4]: 88% | Fresh Weight [4, 8]: 50.1 g

COc1nc(C)nc(NC(=O)NS(=O)(=O)c2ccccc2CCC(F)(F)F)n1 [Prosulfuron]
pest or weed control at 200 g/ha [1, 5]: 25% | Fresh Weight [1, 6]: 53.6 g | pest or weed control at 200 g/ha [2, 5]: 29% | Fresh Weight [2, 6]: 91.3 g | pest or weed control at 200 g/ha [3, 7]: 68% | Fresh Weight [3, 8]: 20.9 g | pest or weed control at 200 g/ha [4, 7]: 9% | Fresh Weight [4, 8]: 43.3 g

COC(=O)c1c(Cl)nn(C)c1S(=O)(=O)NC(=O)Nc1nc(OC)cc(OC)n1 [Halosulfuron-methyl]
pest or weed control at 200 g/ha ([1]; […]): 14% | Fresh Weight [1, 6]: 58.1 g | pest or weed control at 200 g/ha ([2]; […]): 8% | Fresh Weight [2, 6]: 94.5 g | pest or weed control at 200 g/ha [3]: 30% | Fresh Weight [3, 8]: 28.9 g | pest or weed control at 200 g/ha [4]: 15% | Fresh Weight [4, 8]: 40.1 g

COC(=O)c1ccccc1S(=O)(=O)NC(=O)Nc1nc(C)cc(C)n1 [Sulfometuron-methyl]
pest or weed control at 200 g/ha ([1]; […]): 100% | Fresh Weight [1, 6]: 2.0 g | pest or weed control at 200 g/ha ([2]; […]): 2% | Fresh Weight [2, 6]: 104.5 g | pest or weed control at 200 g/ha [3]: 100% | Fresh Weight [3, 8]: 0.0 g | pest or weed control at 200 g/ha [4]: 6% | Fresh Weight [4, 8]: 47.3 g

CO/N=C(/C)c1cccc(Oc2nc(OC)cc(OC)n2)c1C(=O)OC [Pyriminobac-methyl]
pest or weed control at 200 g/ha ([1]; […]): 93% | Fresh Weight [1, 6]: 7.6 g | pest or weed control at 200 g/ha ([2]; […]): 4% | Fresh Weight [2, 6]: 95.2 g | pest or weed control at 200 g/ha [3]: 83% | Fresh Weight [3, 8]: 30.4 g | pest or weed control at 200 g/ha [4]: 20% | Fresh Weight [4, 8]: 39.9 g

COc1cc(OC)nc(NC(=O)NS(=O)(=O)c2c(-c3nnn(C)n3)cnn2C)n1 [Azimsulfuron]
pest or weed control at 200 g/ha [1, 5]: 100% | Fresh Weight [1, 6]: 1.5 g | pest or weed control at 200 g/ha [2, 5]: 20% | Fresh Weight [2, 6]: 87.9 g | pest or weed control at 200 g/ha [3, 7]: 100% | Fresh Weight [3, 8]: 0.0 g | pest or weed control at 200 g/ha [4, 7]: 40% | Fresh Weight [4, 8]: 49.1 g

COc1cc(OC)nc(NC(=O)NS(=O)(=O)N(C)S(C)(=O)=O)n1 [Amidosulfuron]
pest or weed control at 200 g/ha [1, 5]: 71% | Fresh Weight [1, 6]: 32.0 g | pest or weed control at 200 g/ha [2, 5]: 8% | Fresh Weight [2, 6]: 107.4 g | pest or weed control at 200 g/ha [3, 7]: 97% | Fresh Weight [3, 8]: 14.2 g | pest or weed control at 200 g/ha [4, 7]: 25% | Fresh Weight [4, 8]: 47.7 g

CCOc1nc(F)cc2nc(S(=O)(=O)Nc3c(Cl)cccc3C(=O)OC)nn12 [Chloransulam-methyl]
% Visual Injury [1, 5]: 96% | Fresh Weight [1, 6]: 6.8 g | % Visual Injury [2, 5]: 3% | Fresh Weight [2, 6]: 104.4 g | % Visual Injury [3, 7]: 3% | Fresh Weight [3, 8]: 5.5 g | % Visual Injury [4, 7]: 3% | Fresh Weight [4, 8]: 44.9 g

CC(C)C1(C)N=C(c2nc3ccccc3cc2C(=O)O)NC1=O (stereo not drawn) [Imazaquin]
pest or weed control at 200 g/ha ([1]; […]): 100% | Fresh Weight [1, 6]: 4.4 g | pest or weed control at 200 g/ha ([2]; […]): 2% | Fresh Weight [2, 6]: 113.3 g | pest or weed control at 200 g/ha [3]: 99% | Fresh Weight [3, 8]: 1.5 g | pest or weed control at 200 g/ha [4]: 28% | Fresh Weight [4, 8]: 45.4 g
